# Test results as given in patent US7074925B1, “N-substituted derivatives of 5-oxyiminobarbituric acid” (priority 1998, dated 2006).
# Tests used:
# [1] = Determination of maximal tolerable dose; type: in vivo; conditions: oral administration, mice, observed 72 hours; 300 was the maximally utilized one
# Method: Tested substance was introduced perorally (in dose of 300 mg/kg) through a gastric tube or intraperitoneally (in dose of 100 mg/kg) to no-breed white mice with mass 18-20 g (each tested group consisted of 3 males and 3 females). Then the mouse state was observed during 72 hours. Absence of symptoms characteristic of toxic effects, or absence of animal death during the given time allows to make a conclusion that the toxicity of the test substance is low. If acute toxicity effects are observed, the dose is reduced to find maximal tolerable dose.
# [2] = tested on: Herpes virus of the type I (HSV-I/Leningrad/248/88); test: Effect on Herpes virus, cytopathogenic action on Vero cells; type: cell-based, Herpes Simplex virus; conditions: compound 100 μg/ml
# [3] = tested on: primary culture of human lymphocytes (IFN-α production); test: Interferon-inducing activity in primary culture of human lymphocytes; type: cell-based
# C.trachomatis D323 = test: Action on Chlamydia trachomatis in cell culture; type: cell-based; conditions: 100 mg/l
# Method: The antimicrobial activity of the claimed compounds was studied relative to C.trachomatis […], which is a standard strain from the collection of the chair of microbiology of St. Petersburg State Pavlov Medical University. […] Cell cultures McCoy and L929 obtained from the Institute of Cytology of RAS were used in this work. Cells were grown in flasks made of neutral glass in the medium RPMI-1640 with the addition of 10% of fetal calf serum. The test was performed in glass (non-toxic) flat-bottom flasks with cover glasses. The cells were introduced into the medium in the final concentration of […]. […] Simultaneously, tested compounds in a final concentration of 100 mg/l were added to the cells. The sample was centrifuged at 2400 G during 60 minutes at room temperature and incubated at 37° C. for 2 hours. […] The samples were doubled using the medium without cycloheximide so as to exclude its effect on the investigated compounds. The samples were incubated in a CO2-incubator for 48 hours. […] The effect of the action of substance was determined by analysis of the monolayer state and number of cells with CPI when compared with the control (cell culture infected with C.trachomatis […]); in doing so, the number of unchanged cells, that were counted in 100 visual fields obtained using the special net of the microscope eyepiece, was taken into consideration. […] Control of cell culture: morphology of cells and state of monolayer correspond to the given type of the cells; control of chlamydia growth in the cell culture: presence of CPI in the monolayer; control of action of standard antimicrobial agent: reduction of number of CPI in the monolayer as compared to the previous control; control of toxicity of the claimed compounds: toxicity is absent; control of action of solvents: toxic action on cells is absent.
# [4] = tested on: Human's platelet aggregation; test: Antiaggregational properties, ADP-induced platelet aggregation; type: cell-based; conditions: 100 μg/ml, ADP […], platelet-enriched human plasma
# From the text: Human's platelet aggregation was investigated in plasma of healthy 50±3 years donors that was enriched by thrombocytes, by means of aggregometer FRM-1. […] Magnitude of a maximum non-reversible platelet aggregation in the control samples (solvent) was adopted as 100%, and that in tested samples was counted as the percentage compared to the control.
# [5] = Psychostimulating activity, symptom score; type: in vivo, mice; conditions: tested substances perorally 300 mg/kg, one hour after; maximum 30 points, more than 12 significant
# [6] = Analgesic activity, tail withdrawal from radiant heat; type: in vivo, mice
# Method: The time needed to draw back a tail placed under a directed source of radiant heat was estimated in a group of 3 mice. Prolongation of the response time by more than 50% after intraperitoneal dosing a substance (30 mg/kg) indicated analgesic activity. Morphine sulfate (2 mg/kg) was utilized as a reference agent.
# [7] = Antioxidant action, riboflavine chemiluminescence; type: biochemical; conditions: solvent water, phosphate buffer pH 9.1
# From the text: To assess a general antioxidant activity the method of riboflavine chemiluminescence was used. The test substance was introduced into a system consisted of phosphate buffer (pH 9.1), solution of riboflavine, and solution of bivalent iron sulfate. Chemiluminescence was initiated by 0.1% solution of hydrogen peroxide and registered by means of luminometer. […] Ascorbic acid was used as a reference agent.
smiles,measurement,setting,value
Cc1ccccc1N1C(=O)C(=NO)C(=O)NC1=S [XLII],"Maximal tolerable dose, concentration of test substances",[1],300 mg/kg
same,Quantity of the unchanged cells (number of cells in 100 visual fields),"[2]; Vero cells, 36 hours, cell control 10000",5000
same,percentage of protection of cells from virus,[2]; compared to the control of cell culture,(50%)
same,Content of IFN in induction mixture after 24-hour incubation,[3]; substance 1 mg/l,28.0 ± 1.5 IU/3 × 10^4 lymph./ml
same,Content of IFN in induction mixture after 24-hour incubation,[3]; substance 10 mg/l,45 ± 1.2 IU/3 × 10^4 lymph./ml
same,Content of IFN in induction mixture after 24-hour incubation,[3]; substance 100 mg/l,97.5 ± 1.8 IU/3 × 10^4 lymph./ml
same,percentage of cell protection from infection,C.trachomatis D323,(60%)
same,Number of unchanged cells,"C.trachomatis D323; 48 hours, counted in 100 visual fields, cell control 8.000, infected cells 6.000",7.200
same,% of inhibition of platelet aggregation,[4],35.8 ± 3.2%
same,Number of points (psychostimulation),[5],15
same,"Latent period of response, before dosing",[6]; before intraperitoneal 30 mg/kg,7.8
same,"Latent period of response, 30 minutes after dosing",[6]; intraperitoneal 30 mg/kg,11.3
same,"IC50, suppressing chemiluminescence by 50%",[7],9.99 µg/mL
